What follows are compounds tested against T1, Parkin ligase (Homo sapiens, UniProt O60260) (assay: Activity-Based Probe Assay using an Ubiquitin vinyl sulfone probe (TR-FRET)). Details: not given.
T1 sequence (O60260 1-465): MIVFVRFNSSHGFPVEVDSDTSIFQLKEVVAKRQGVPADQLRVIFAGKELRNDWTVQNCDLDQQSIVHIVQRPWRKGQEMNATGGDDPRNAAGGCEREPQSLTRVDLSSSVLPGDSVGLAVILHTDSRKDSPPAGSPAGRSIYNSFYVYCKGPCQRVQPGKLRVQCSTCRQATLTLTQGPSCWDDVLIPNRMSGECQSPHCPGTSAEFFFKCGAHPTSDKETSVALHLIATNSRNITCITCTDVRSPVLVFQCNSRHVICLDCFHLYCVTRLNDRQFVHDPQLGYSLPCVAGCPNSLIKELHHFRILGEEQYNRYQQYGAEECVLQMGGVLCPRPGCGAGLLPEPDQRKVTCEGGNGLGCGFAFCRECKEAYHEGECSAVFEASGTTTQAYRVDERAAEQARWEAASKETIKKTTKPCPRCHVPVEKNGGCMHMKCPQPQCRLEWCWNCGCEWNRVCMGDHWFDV
Type: biochemical
Experimental: An Ubiquitin vinyl sulfone probe can be used that irreversibly binds to the active site cysteine of Parkin ligase. Covalent attachment of the probe to the Parkin can be monitored by TR-FRET. Candidate activator compounds can be identified by increasing the activity of Parkin ligase due to an increase in TR-FRET signal. Screening for activating compounds can be distinguished from the controls as follows: • 100% activation signal=Heat activated Parkin+100 nM control activator in DMSO. • 0% activation signal=Heat activated Parkin+DMSO only. • Parkin activators can be identified by an increase of the 0% activation signal TR-FRET signal.
• Assay Plate: White 384 well plate (Corning 3572) • Enzyme: Parkin-His tagged 203 μM (10.5 mg/ml) • Probe: Ubiquitin vinyl-sulfone (HA-Ub-VS Boston Biochem U-212) • DMSO: DMSO (Sigma cat # D4540-100ML) • Reaction Buffer: 50 mM HEPES (pH 8.5), 150 mM NaCl, 0.01% Tween 20, 0.1% BSA • Detection Buffer: 50 mM HEPES (pH 8.5), 150 mM NaCl, 0.01% Tween 20, 0.1% BSA, 800 mM KF • Detection Reagent A: 2.6 nM Anti-6HIS-Eu cryptate and 40 nM Anti-HA-XL665 in detection buffer • Eu cryptate: Anti-6HIS-Eu cryptate (CisBio 61HISKLA) • XL665: Anti-HA-XL665 (CisBio 610HAXLA) Enzyme Reaction (15 min pre incubation Parkin with activator only) • Parkin: 40 nM • HA-Ub-VS Probe: 70 nM • Activator/DMSO: 2× Activator/2% DMSO • Reaction time: 60 minutes • Temperature: 22° C. • Total volume: 10 μl reaction Detection Reaction • Take 10 μl of Enzyme Reaction above and add 10 μl detection Reagent A under the following conditions: • Reaction time: 60 minutes • Temperature: 22° C. • Total volume: 20 μl
Assay procedure (Using HP D-300 compound dispenser and Bravo for the operation): • 1) Heat activate Parkin in reaction buffer (500 μl/1.5 ml tube: Eppendorf Thermomixer 5 minutes, 400 rpm at 58° C. and put on ice until needed). • 2) Load assay plate wells with 4.8 μl 84.5 nM Parkin in reaction buffer by use of Bravo. • 3) Deliver 0.2 μl 200× activator candidates in DMSO by use of HP D-300 compound dispenser. Highest 200× concentration=[…] and then twofold dilutions. • 4) Spin 1000 rpm, 2 minutes, at room temp. • 5) Incubate plate for 15 minutes at room temp. • 6) Add 5 μl 140 nM HA-Ub-VS Probe in reaction buffer by use of Bravo. • 7) Spin 1000 rpm, 2 minutes, at room temp. • 8) Incubate plate for 60 minutes at room temp. • 9) Add 10 μl 2.6 nM Anti-6HIS-Eu cryptate and 40 nM Anti-HA-XL665 in detection buffer. • 10) Spin 1000 rpm, 2 minutes, at room temp. • 11) Incubate plate for 60 minutes at room temp. • 12) Read plates on Perkin Elmer Envision instrument with the following parameters: • LANCE dual laser protocol loaded into the Envision® software • Top Mirror: LANCE/DELFIA Duel/Bias (Bar code 446) • Emission Filter: APC 665 EM (Bar code 205) • 2nd Emission Filter: Europium 615 EM (Bar code 203) • Read 655 nm (channel 1) and 615 nm (channel 2) wavelengths on Envision®
Data Analysis: The Data can be read in CSV files. There are two tables in those CSV files, which are the values of 655 nm (channel 1) and 615 nm (channel 2) wavelengths respectively. The data is converted to an HTRF Ratio=(Channel 1/Channel 2)*10,000
The average of all the 0 uM controls (DMSO only)=BKGD (Background—0% activation). Subtract BKGD from each HTRF Ratio value=HTRF-BKGD. The average of all the […] 100 nM control activator in DMSO controls=Max (100% activation). The following equation is then used to calculate % Activation for each well/candidate as follows: % Activation=(HTRF-BKGD/Max)*100.
Graphpad Prisim was used with Transform X values: X=Log(X) and nonlinear regression (dose-response-stimulation): Log(agonist) vs Response—variable slope (four parameters) with constrains set to Bottom=0 and Top=100.
The Activity-Based Probe Assay was performed with various compounds in Tables 1-3.
`O=C(Nc1nc(NC(=O)c2ccccc2)n(-c2ccccc2)n1)c1ccccc1` [Compound A, N,N′-(1-phenyl-1H-1,2,4-triazole-3,5-diyl)dibenzamide] was tested, and the “Parkin Ligase reaction with the Activity-based Ubiquitin vinyl sulfone probe” value was “increases”. `O=C(/C=C/c1ccccc1)Nc1nc(NC(=O)c2ccccc2)nn1-c1ccccc1` [Compound C, N-(5-cinnamamido-1-phenyl-1H-1,2,4-triazol-3-yl)benzamide] was tested, and the “Parkin Ligase reaction with the Activity-based Ubiquitin vinyl sulfone probe” value was “increases”.

Same assay, conditions: Parkin activation, HA-Ub-VS probe, heat activated Parkin; read-out: Probe Assay EC50 (μM) [Example 2]
`O=C(Nc1nc(Nc2cc(N3CCCC3)nc3ccccc23)n(-c2ccccc2)n1)c1ccccc1` [Compound A1] was tested, and the EC50 was over 100 µM. Work on `O=C(Nc1nc(NC(=O)c2cc3ccccc3s2)n(-c2ccccc2)n1)c1ccccc1` [Compound A2] yielded an EC50 of 50 µM. For `O=C(Nc1nc(NC(=O)c2ccccc2)n(-c2ccccc2)n1)c1ccccc1` [Compound A, N,N′-(1-phenyl-1H-1,2,4-triazole-3,5-diyl)dibenzamide], the EC50 was 7 µM. `O=C(Nc1nc(Nc2nc(N3CCCC3)c3ccccc3n2)n(-c2ccccc2)n1)c1ccccc1` [Compound B1] showed an EC50 of over 100 µM. `O=C(Nc1nc(NC(=O)c2ccc3ccccc3n2)n(-c2ccccc2)n1)c1ccccc1` [Compound B2] showed an EC50 of 4 µM. For `CC(=O)Nc1nc(NC(C)=O)n(-c2ccccc2)n1` [Compound B], the EC50 was over 100 µM. `O=C(Nc1nc(Nc2ncnc3ccccc23)n(-c2ccccc2)n1)c1cccs1` [Compound C1] showed an EC50 of 3.7 µM. With `Cc1ccccc1C(=O)Nc1nc(NC(=O)/C=C/c2ccccc2)n(-c2ccccc2)n1` [Compound C2] the EC50 was 4 µM. `O=C(/C=C/c1ccccc1)Nc1nc(NC(=O)c2ccccc2)nn1-c1ccccc1` [Compound C, N-(5-cinnamamido-1-phenyl-1H-1,2,4-triazol-3-yl)benzamide] was tested, and the EC50 was 15.1 µM. `CN1CCC(C(=O)Nc2nc(Nc3ncnc4ccccc34)n(-c3ccccc3)n2)CC1` [Compound D1] was tested, and the EC50 was 38.9 µM. `O=C(Nc1nc(NC(=O)c2ccccc2)n(-c2ccc3ccccc3n2)n1)c1ccccc1` [Compound D2] was tested, and the EC50 was 89 µM. Work on `O=C(Nc1nc(Nc2nc(O)nc3ccccc23)n(-c2ccccc2)n1)c1ccccc1` [Compound E1] yielded an EC50 of over 100 µM. `O=C(Nc1nc(NC(=O)c2ccccc2)n(-c2ccc3c(c2)OCCO3)n1)c1ccccc1` [Compound E2] showed an EC50 of 6 µM. `O=C(Nc1nc(NC(=O)c2ccccc2)n(-c2ccc(I)cc2)n1)c1ccccc1` [Compound E, N-[5-benzamido-1-(4-iodophenyl)-1,2,4-triazol-3-yl]benzamide] gave an EC50 of 15.3 µM. With `CCN(CC)c1cc(Nc2nc(NC(=O)c3ccccc3)nn2-c2ccccc2)ncn1` [Compound F1] the EC50 was over 100 µM. In the case of `COc1ccc(-n2nc(NC(=O)c3ccccc3)nc2NC(=O)c2ccccc2)cc1` [Compound F2], the EC50 is reported as 12 µM. Work on `Cc1ccccc1C(=O)Nc1nc(NC(=O)c2ccccc2C)n(-c2ccccc2)n1` [Compound F, 2-methyl-N-[5-[(2-methylbenzoyl)amino]-1-phenyl-1,2,4-triazol-3-yl]benzamide] yielded an EC50 of 6.7 µM. For `O=C(Nc1nc(Nc2cc(N3CCCC3)ncn2)n(-c2ccccc2)n1)c1ccccc1` [Compound G1], the EC50 was over 100 µM. With `O=C(Nc1nc(NC(=O)c2cccs2)nn1-c1ccccc1)c1ccccc1` [Compound G2] the EC50 was 2 µM. `O=C(Nc1nc(Nc2ccncn2)n(-c2ccccc2)n1)c1ccccc1` [Compound H1] gave an EC50 of over 100 µM. In the case of `Cc1ccccc1C(=O)Nc1nc(-c2ccccn2)nn1-c1ccc(OC(F)(F)F)cc1` [Compound H3], the EC50 is reported as 3 µM. `Cc1ccccc1C(=O)Nc1nc(NC(=O)c2ccccc2)n(-c2ccccc2)n1` [Compound H] was tested, and the EC50 was over 100 µM. Compound `O=C(Nc1nc(Nc2ccnc3ccccc23)n(-c2ccccc2)n1)c1ccccc1` [Compound I1] has an EC50 of over 100 µM. `O=C(Nc1nc(NC(=O)c2ccccc2)n(C2CCOCC2)n1)c1ccccc1` [Compound I2] showed an EC50 of over 100 µM. With `Nc1nc(Nc2nc(NC(=O)c3ccccc3)nn2-c2ccccc2)c2ccccc2n1` [Compound J1] the EC50 was over 100 µM. Compound `O=C(Nc1nc(NC(=O)c2ccccc2)n(-c2ccc3ncccc3c2)n1)c1ccccc1` [Compound J2] has an EC50 of 6 µM. Compound `CC(C)C(=O)Nc1nc(Nc2ncnc3ccccc23)n(-c2ccccc2)n1` [Compound K1] has an EC50 of 9.2 µM. With `Cc1ccccc1C(=O)Nc1nc(NC(=O)c2cccs2)nn1-c1ccccc1` [Compound K2] the EC50 was 6 µM. Work on `Cc1ccccc1C(=O)Nc1nc(NC(=O)c2ccccc2)nn1-c1ccccc1` [Compound K, N-(5-benzamido-2-phenyl-1,2,4-triazol-3-yl)-2-methyl-benzamide] yielded an EC50 of 10.8 µM. `C/C=C/C(=O)Nc1nc(Nc2ncnc3ccccc23)n(-c2ccccc2)n1` [Compound L1] showed an EC50 of 37 µM. `C=CC(=O)Nc1nc(NC(=O)c2ccccc2)nn1-c1ccccc1` [Compound L2] showed an EC50 of over 100 µM. Compound `O=C(Nc1nc(Nc2ncnc3ccccc23)n(-c2ccccc2)n1)c1ccccc1` [Compound L, N-[1-phenyl-5-(quinazolin-4-ylamino)-1,2,4-triazol-3-yl]benzamide] has an EC50 of 1.8 µM. In the case of `C=C(C)C(=O)Nc1nc(Nc2ncnc3ccccc23)n(-c2ccccc2)n1` [Compound M1], the EC50 is reported as 11.9 µM. With `O=C(Nc1nc(NC(=O)c2nc3ccccc3s2)n(-c2ccccc2)n1)c1ccccc1` [Compound M2] the EC50 was over 100 µM. `Nc1nc(Nc2nc(NC(=O)c3ccccc3)nn2-c2ccccc2)nc2ccccc12` [Compound N1] gave an EC50 of over 100 µM. Work on `O=C(Nc1nc(Nc2nc(O)c3ccccc3n2)n(-c2ccccc2)n1)c1ccccc1` [Compound O1] yielded an EC50 of 12.8 µM. `O=C(Nc1nc(NC(=O)c2ccccc2)n(-c2cccc3cccnc23)n1)c1ccccc1` [Compound O2] showed an EC50 of over 100 µM. `O=C(Nc1nc(NC(=O)c2ccccc2)n(-c2cccc3ncccc23)n1)c1ccccc1` [Compound P2] was tested, and the EC50 was over 100 µM. `Cc1ccccc1C(=O)Nc1nc(-c2ccccn2)nn1-c1ccccc1` [Compound Q2] gave an EC50 of 26 µM. Compound `Cc1ccccc1C(=O)Nc1nc(NC(=O)c2ccccc2C)n(-c2ccc(Cl)cc2)n1` [Compound Q3] has an EC50 of 4 µM. Work on `Cc1ccccc1C(=O)Nc1nc(Nc2ncnc3ccccc23)n(-c2ccccc2)n1` [Compound R2] yielded an EC50 of 4 µM. With `Cc1ccc(-c2nc(NC(=O)c3ccccc3C)n(-c3ccccc3)n2)nc1` [Compound R3, 2-methyl-N-(3-(5-methylpyridin-2-yl)-1-phenyl-1H-1,2,4-triazol-5-yl)benzamide] the EC50 was 3 µM. In the case of `Cc1ccccc1C(=O)Nc1nc(-c2ccncc2)nn1-c1ccccc1` [Compound S2], the EC50 is reported as over 100 µM. Compound `Cc1ccccc1C(=O)Nc1nc(-c2ncccc2C)nn1-c1ccccc1` [Compound S3, 2-methyl-N-(3-(3-methylpyridin-2-yl)-1-phenyl-1H-1,2,4-triazol-5-yl)benzamide] has an EC50 of 3 µM. With `Cc1ccccc1C(=O)Nc1nc(-c2cccnc2)nn1-c1ccccc1` [Compound T2] the EC50 was over 100 µM. `O=C(/C=C/c1ccccc1)Nc1nc(NC(=O)c2ccccc2)nn1-c1ccccn1` [Compound U1] was tested, and the EC50 was 25.9 µM.

Source: patent US10308617B2, “Triazole benzamide derivatives and the compositions and methods of treatment regarding the same” (An2H Discovery Limited, priority 2016, dated 2019)
